Assay results published in patent US20100048604A1, “Ligands for Aldoketoreductases” (priority 2004, published 2010).

Tests used:
Assay type in all cases: biochemical
Conditions in all cases: 12 hour incubation, 30-50 μM substrate, pH 7, 250 μM NAD(P)H
[1] = biological target: T1, Pseudomonas testosteroni 3α-hydroxysteroid dehydrogenase (Comamonas testosteroni, UniProt P80702); assay: Enzymatic screening of probes 1-7 against a panel of oxidoreductases
T1 construct: purchased Sigma (St. Louis, Mo.) Lot Number 053K8624 (catalogue number not given)

[2] = biological target: T2, Thermoanaerobium brockii alcohol dehydrogenase (TBAD) (Thermoanaerobacter brockii, UniProt P14941); assay: as above
T2 construct: purchased Sigma (St. Louis, Mo.) Lot Number 033K4093 (catalogue number not given)
T2 sequence (P14941 1-352): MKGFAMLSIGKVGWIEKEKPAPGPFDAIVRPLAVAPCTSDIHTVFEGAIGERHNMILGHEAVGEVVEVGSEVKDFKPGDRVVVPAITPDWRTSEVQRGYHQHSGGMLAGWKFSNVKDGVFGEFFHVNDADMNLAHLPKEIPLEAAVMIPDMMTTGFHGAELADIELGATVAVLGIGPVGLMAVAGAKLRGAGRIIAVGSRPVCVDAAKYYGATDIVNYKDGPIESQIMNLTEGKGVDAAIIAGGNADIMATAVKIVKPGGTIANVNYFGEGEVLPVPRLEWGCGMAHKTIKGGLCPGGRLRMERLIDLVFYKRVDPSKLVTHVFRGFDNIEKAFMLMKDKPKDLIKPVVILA

[3] = biological target: T3, rat 3α-hydroxysteroid dehydrogenase (Rattus norvegicus, UniProt P23457); assay: as above
T3 construct: gift of Professor Trevor Penning (University of Pennsylvania School of Medicine)
T3 sequence (P23457 1-322): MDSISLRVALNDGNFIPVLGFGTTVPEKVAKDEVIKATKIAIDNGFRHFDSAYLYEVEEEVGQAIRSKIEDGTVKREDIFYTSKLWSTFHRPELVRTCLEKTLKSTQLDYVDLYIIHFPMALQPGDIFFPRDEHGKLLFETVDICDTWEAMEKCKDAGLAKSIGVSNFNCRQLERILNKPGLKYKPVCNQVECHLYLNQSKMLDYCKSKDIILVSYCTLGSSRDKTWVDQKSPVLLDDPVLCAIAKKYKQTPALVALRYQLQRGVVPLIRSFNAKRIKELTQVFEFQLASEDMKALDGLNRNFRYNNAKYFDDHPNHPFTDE

panel of oxidoreductases = assay: Enzymatic screening of probes 1-7 against a panel of oxidoreductases (enzymes other than 3α-HSDs)
Method: FIG. 4. Screening of probes 1-7 against a panel of oxidoreductases Percentage fluorescence increase after 12 hour incubation of 30-50 μM substrate, 100 mM phosphate buffer (pH 7), 250 μM NAD(P)H, and 100 nM enzyme. Substrates 1, 2, 3, and 4 monitored at λexc=340 nm, λem=440 nm. Substrates 5, 6, and 7 monitored at λexc=440 nm, λem=510 nm. 3HSD, 3α-hydroxysteroid dehydrogenase (PT, Pseudomonas testosteroni), HLAD, horse liver alcohol dehydrogenase, TBAD, Thermoanaerobium brockii alcohol dehydrogenase, BS 12HSD, Bacillus sp. 12α-hydroxysteroid dehydrogenase, ABAD, amyloid-β binding alcohol dehydrogenase (human), GDH, glycerol dehydrogenase, YADH, yeast alcohol dehydrogenase, LDH, lactate dehydrogenase.
Probes 1-7 (see FIG. 3) were subsequently tested against a collection of dehydrogenases in the presence of NAD(P)H; the extent of reduction was assessed by the measurement of fluorescence intensity at the emission maximum of each probe (FIG. 4). […]
Initial Screening with Fluorogenic Substrates: Screening of the first fluorogenic substrates for enzymatic activity has been described above. […] Formation of the alcohol reduction product was determined by reading the fluorescence arising from excitation at the corresponding alcohol at either 340 nm (27-30) or 440 nm (31-33).

T1 sequence (P80702 whole entry): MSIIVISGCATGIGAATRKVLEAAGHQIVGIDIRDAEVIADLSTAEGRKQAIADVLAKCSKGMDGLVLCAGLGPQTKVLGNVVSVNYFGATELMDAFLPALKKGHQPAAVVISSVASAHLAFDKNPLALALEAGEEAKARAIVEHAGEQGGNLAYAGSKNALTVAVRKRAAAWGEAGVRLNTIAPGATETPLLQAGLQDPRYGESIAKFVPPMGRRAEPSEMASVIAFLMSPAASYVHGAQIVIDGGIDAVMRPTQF

CC(=O)c1cc(=O)oc2c3c4c(cc12)CCCN4CCC3 [compound 5, 8-Acetyl-2,3,5,6-tetrahydro-1H,4H-11-oxa-3a-aza-benzo[de]anthracen-10-one]
reduction of probe (fluorescence increase) [1]: converted rapidly and selectively
reduction of probe (fluorescence increase) [2]: not acceptant
reduction of probe (fluorescence increase) [3]: converted rapidly and selectively
reduction of probe by the other enzymes of the panel (panel of oxidoreductases): No other enzymes examined in this assay catalyzed the reduction
